Data from publication PMC10514136, “Peptide-conjugated antimiRs improve myotonic dystrophy type 1 phenotypes by promoting endogenous MBNL1 expression” (Molecular Therapy. Nucleic Acids, 2023).
Several values for one entry are separate records, joined by “and”; a condition that tells them apart may be missing. Equal entries are not always repeated. Where two headings read alike, the source gives them in different places.

Columns and labels:
[1] = system: MBNL1 protein levels in DM1 cells; type: cell-based, human; conditions: for Tindex (therapeutic index): Tindex = TC50 x Emax / EC50; for EC50: median effective concentration for MBNL1 increase, DM1 myotubes, lipofection (X-tremeGENE HP), medium replaced after 4 h, cells collected day 4, each concentration in triplicate; for MBNL1 fold change: vs untreated DM1 cells
Protocol: Immortalized MyoD-inducible (doxycycline) DM1 and control fibroblasts were kindly provided by Dr Furling (Institute of Myology, Paris, France).[38] For the activity assay, cells were seeded in 6-well plates at a density of 8 × 10^4 cells/well and grown in DMEM with 4.5 g/L glucose, 1% P/S, and 10% FBS (Sigma, St. Louis, MO). […] In all cases, the cells were grown at 37°C in a humidified atmosphere containing 5% CO2. Transdifferentiation was induced at day 0, and transfection was performed by lipofection with X-tremeGENE HP (Roche, Basel, Switzerland) 24 h later, with antimiRs and test compounds in the cell medium at different concentrations (from 0.4 nM to 5 μM). The medium was replaced with fresh differentiation medium 4 h afterward. In the gymnosis assay, test compounds were added to the culture medium only at the corresponding EC50 concentration. Cells were collected on day 4 of differentiation and were processed for protein extraction.
For total protein extraction, human muscle cells were sonicated while mouse muscles (gastrocnemius and quadriceps) were homogenized in Pierce RIPA buffer (Thermo Scientific, Waltham, MA) supplemented with protease and phosphatase inhibitor cocktails (Roche Applied Science, Penzberg, Germany). Quantification of total protein was performed with a Pierce BCA protein assay kit (Thermo Scientific) using bovine serum albumin as standard.
A 96-well plate QDB assay was used[87] to determine MBNL1 protein levels in all replicates and concentrations of each ON tested. This technique allows for high-throughput screening of low protein concentration samples over conventional western blot (WB) (Figure S9).[88] Cell samples (1 μg/well) and mice samples (2 μg/well) were prepared with 4× loading buffer, denatured (100°C for 5 min) and loaded in QDB plates (Quanticision Diagnostics, Research Triangle Park, NC). For the quantification of in vitro samples, the QDB was performed exactly as described in Moreno et al.[87] […] For Mbnl1 quantification in mouse muscle tissues, we implemented the following modifications: each sample was loaded in quadruplicate on three different plates. One was used to detect Mbnl1 with a mouse MB1a(4A8) antibody (DSHB, Iowa City, IA) using a 1:200 dilution. A second plate was used to quantify tubulin (endogenous normalization control) with a mouse 12G10 antibody (DSHB) using a 1:1,000 dilution. A third plate was used to quantify IgG signal (negative control to subtract background) using an anti-mouse-IgG secondary antibody (Sigma-Aldrich) at 1:3,500 dilution. […] All primary antibodies were detected using horseradish peroxidase-conjugated anti-mouse-IgG secondary antibody (1:5,000 for the anti-mouse plate, 1:2,000 for cell plates, and 1:3,500 for mouse plates [Sigma-Aldrich, MO]). Immunoreactive bands were detected using Pierce ECL Western reagent (Thermo Scientific), and luminescence levels were determined using an Infinite M200 PRO plate reader (Tecan). […] WB assay was performed as described previously.[20]
After obtaining the TC50, EC50, and Emax in vitro, we defined a Tindex as follows: Tindex=TC50×Emax/EC50

Atp2a1 exon 22 = assay: Alternative splicing of Atp2a1 exon 22 in muscle by RT-PCR (PSI, splice recovery); type: in vivo, mouse; conditions: HSALR mice, individual mice; for Percentage spliced-in (PSI) Atp2a1 Gast: 9.2 mg/kg (mean) i.v. x3, day 45, gastrocnemius; for Percentage spliced-in (PSI) Atp2a1 Quads: 9.2 mg/kg (mean) i.v. x3, day 45, quadriceps
Protocol: Total RNA from murine gastrocnemius and quadriceps muscle was isolated using the miRNeasy Mini Kit (QIAGEN, Hilden, Germany) according to the manufacturer’s instructions. One microgram of RNA was digested with DNase I (Invitrogen, Carlsbad, CA) and reverse transcribed with SuperScript II (Invitrogen) using random hexanucleotides. For subsequent PCR reactions, 20 ng of cDNA was used with GoTaq polymerase (Promega). Specific primers were used to analyze the alternative splicing of Nfix, Atp2a1, and Clcn1 in mouse samples (both muscles). Gapdh levels established the endogenous reference levels using 0.2 ng of cDNA. PCR products were separated on a 2% agarose gel and quantified using ImageJ software (NIH, Bethesda, MD). PSR index was defined as value%SI minus X¯%DSI , divided by X¯%DSI minus X¯%HSI (SI, splicing inclusion of each sample; DSI, disease splicing inclusion; HSI, healthy splicing inclusion). Overall, PSR indicates the amount in both muscles analyzed. Primer sequences and exons analyzed are available in Cerro-Herreros et al.[20] In the case of off-targets, interleukins, and muscle regeneration marker Mstn-1, primers sequences are available in Table S5. We used 1 ng of mouse tissue cDNA as a template for multiplex qPCR using the QuantiFast Probe PCR Kit reagent. Commercial TaqMan probes (QIAGEN) were used for mouse (Mbnl1 and Mbnl2; FAM-labeled probes) and reference (GAPDH; MAX-labeled probe) genes. Results were normalized to Gapdh endogenous gene expression.
We used homozygous transgenic HSA^LR (line 20 b) mice,[90] which were kindly provided by Dr Thornton (Rochester, NY) and were housed and bred in our animal facility. Experimental groups were FVB as healthy control and HSA^LR treated with a scrambled ON (SC) and PBS as negative controls, and HSA^LR mice treated with all six experimental CPP-PMOs. The mice were randomly allocated to the different treatments as follows: in each cage, each mouse was ear-marked as it was taken out, and each mouse was then assigned to a different treatment. […] Mice were sacrificed 45 days after the first injection and the tissues of interest were frozen in liquid nitrogen for the molecular and histological assays. All the mice used in this study ranged from 5 to 5.5 months of age and all were males.

Substance | Tindex (therapeutic index) [1] | EC50 [1] | MBNL1 fold change ([1]; transfection, 1,000 nM) | Percentage spliced-in (PSI) Atp2a1 Gast (Atp2a1 exon 22) | Percentage spliced-in (PSI) Atp2a1 Quads (Atp2a1 exon 22) | ΔTindex ([1]; fold change in Tindex relative to the control antagomiR against the same miRNA) | TC50 relative to EC50 [1] | MBNL1 fold change ([1]; transfection, 200 nM) | MBNL1 fold change ([1]; transfection, 10 nM) | Emax (maximum fold change) ([1]; highest MBNL1 protein level vs untreated DM1 cells over the concentrations tested, transfection) | ability to enhance MBNL1 expression ([1]; transfection, all concentrations tested (10 nM to 5 μM))
6aKC-23b (antisense GGUAAUCCCUGGCAAUGUGAU; all phosphorodiamidate morpholino (PMO), T or U not given here; Pip6aKC peptide conjugated) | 7.78 | 453 nM | ~2 fold | 14.22% and 26.08% and 16.73% and 17.96% and 14.74% | 29.81% and 23.38% and 17.76% and 24.03% and 33.87% | – | – | – | – | – | –
6aKC-218 (antisense ACAUGGUUAGAUCAAGCACAA; all phosphorodiamidate morpholino (PMO), T or U not given here; Pip6aKC peptide conjugated) | 22.78 | 138 nM | ~1.5 fold | 14.70% and 11.51% and 10.78% and 31.20% and 12.62% | 21.08% and 26.96% and 31.16% and 9.84% and 26.51% | – | – | – | – | – | –
9b2-23b (antisense GGUAAUCCCUGGCAAUGUGAU; all phosphorodiamidate morpholino (PMO), T or U not given here; Pip9b2 peptide conjugated) | 25.19 | 16 nM | – | 52.69% and 18.37% and 16.01% and 11.16% and 23.52% | 98.27% and 99.53% and 75.32% and 25.61% and 36.45% | 0.34 fold change | – | – | – | – | –
9b2-218 (antisense ACAUGGUUAGAUCAAGCACAA; all phosphorodiamidate morpholino (PMO), T or U not given here; Pip9b2 peptide conjugated) | 2.52 | 64.7 nM | – | 14.72% and 85.58% and 28.83% and 19.19% and 31.61% | 71.69% and 99.29% and 50.19% and 99.72% and 99.28% | – | – | – | – | – | –
9b2KC-23b (antisense GGUAAUCCCUGGCAAUGUGAU; all phosphorodiamidate morpholino (PMO), T or U not given here; Pip9b2KC peptide conjugated) | 404.48 | 2 nM | – | 11.22% and 31.29% and 33.92% and 10.51% and 42.67% | 37.72% and 33.71% and 28.53% and 24.15% and 39.24% | – | 128 fold | ~3 fold | – | – | –
9b2KC-218 (antisense ACAUGGUUAGAUCAAGCACAA; all phosphorodiamidate morpholino (PMO), T or U not given here; Pip9b2KC peptide conjugated) | 198.07 | 2.58 nM | – | 12.53% and 17.65% and 19.44% and 12.90% and 35.28% | 99.70% and 25.98% and 29.31% and 30.83% and 25.20% | – | – | – | ~6 fold | – | –
TCTTACCTCAGTTACAATTTA-Pip9b2 [Scramble, reference compound] | – | 890 nM | – | 6.44% and 27.49% and 24.15% and 5.60% and 15.65% | 18.65% and 34.43% and 18.71% and 17.01% and 7.50% | – | – | – | – | 1.30 fold change | no ability to enhance MBNL1 expression at any concentration tested
